The record followed here is patent publication EP2387573B1, “6-PHENYL-1H-IMIDAZO[4,5-C]PYRIDINE-4-CARBONITRILE DERIVATIVES AS CATHEPSIN S AND/OR CATHEPSIN K INHIBITORS” (Organon BioSciences Nederland B.V., priority 2009, dated 2010).

Assay [1] has as its target T1, Cathepsin S (Homo sapiens, UniProt P25774). As to the kind of experiment: Cathepsin S assay procedure (inhibition of recombinant enzyme, fluorogenic substrate Z-Val-Val-Arg-AMC). The format is biochemical. The conditions noted are these: pH5.5, fluorescence at 20 minutes; read-out: pIC50 (negative logarithm of the IC50 concentration) for inhibition of human cathepsin S (converted). The procedure: EXAMPLE 32 Cathepsin S assay procedure
25µl of a 2mg/l solution of activated recombinant human cathepsin S, in assay buffer, is then added to the well, yielding a final inhibitor concentration of 10µM.
Enzyme activity is determined by measuring the fluorescence of the liberated aminomethylcoumarin at […] using 390nm excitation, at 20 minutes. Percentage enzyme activity is calculated by comparison of this activity to that of a solution containing no inhibitor. Compounds are subsequently subjected to a dose response curve analysis in order to determine IC50 values for active compounds (where IC50 is the concentration of test compound causing 50 % inhibition of the enzymatic activity). Compounds of the invention typically have a pIC50 (negative logarithm of the IC50 concentration) for inhibition of human cathepsin S of more than 6. Most compounds of the invention have a pIC50 of more than 7, such as exemplified by the compounds of examples 1a, 1b, 2a, 7d, 12a, 14a, 14b, 14c, 14d, 14e, 14f, 14g, 14h, 14i, 17, 18.

In assay [2] the target is T1, Cathepsin S. As to the kind of experiment: Cell based lip10 assay (Lip10 accumulation, anti-CD74 ELISA). Further details: endogenous in cells; host or cells: Jiyoye human B lymphoblastoid cells. The conditions noted are these: Human B lymphoblastoid cells (Jiyoye), 24 hours, relative to E64d / LHVS-treated cells; read-out: pEC50 (negative logarithm of the EC50 concentration) (converted). From the text:
In some cases, these cell based activities are up to 100 fold greater than previously disclosed compounds in WO 2007/080191.
EXAMPLE 34 Cathepsin S assay
During normal antigen presentation, Lip10 is proteolytically degraded to enable loading of a peptide fragment and subsequent MHC-II presentation on the surface of antigen presenting cells. The cleavage process is mediated by Cathepsin S. Thus, the Lip10 assay is an in vitro measure of a compound's ability to block cathepsin S and by extension antigen presentation. A compound that causes the accumulation of Lip10 at low concentration would be expected to block presentation of antigens.
Cell based lip10 assay procedure
Human B lymphoblastoid cells (Jiyoye) were cultured in RPMI 1640 medium at a density of 500 000 cells/ml in 24-well plates. Cells were treated with a concentration range of compounds (0.001-10µM) and vehicle alone (DMSO, 0.1% v/v). In order to generate positive control treatments separate wells were treated with 10µM E64d & 0.1µM LHVS. The cells were incubated at 37°C in a humidified incubator containing 5% CO2. After 24 hours the plates were centrifuged at 150 x g for five minutes and the media removed. Cells were lysed by adding 65µl of ice-cold phosphate buffered saline (PBS) containing 1% (v/v) Triton X-100 and protease inhibitors and incubated on ice for 20 minutes. The samples were centrifuged at 18 000 x g for 15 minutes at 4°C and the resulting supernatants collected and stored at -80°C until required. After measurement of protein concentration using a micro-BCA protein assay all samples were diluted to 10µg protein/ml and 50µl of each sample were coated overnight at 4°C onto wells of high protein-binding 96-well plates. The wells were washed once with PBS (200µl/well) and then incubated at room temperature for 2 hours with 10µg/ml mouse anti-CD74 Pin.1 monoclonal antibody (50µl/well) in PBS containing 0.05% (v/v) Tween-20 (PBS-T) and 2% (w/v) BSA (PBS-T/BSA). Unbound antibody was then removed by washing three times with PBS-T and followed by the addition of rabbit anti-mouse IgG antibody conjugated to horseradish peroxidase. After washing five times with PBS-T 100µl of tetramethylbenzidine substrate was added to each well and incubated for 10 minutes on a plate shaker. The reaction was stopped by the addition of 100µl of 1 M hydrochloric acid. Antibody binding was quantified by measuring the optical density (OD, 450nm) using a Molecular Devices Spectramax Plus. The OD of vehicle-only treated cells was removed from all values and the data was expressed as a percentage of the OD generated from the mean E64d / LHVS-treated cells. The potency of compounds (EC50) was measured by calculating the concentration of inhibitor required to generate 50% inhibition relative to E64d / LHVS-treated cells.

Structures are written as SMILES. Where a name gives a salt, the structure may show the parent alone.

T1 sequence (P25774 115-331): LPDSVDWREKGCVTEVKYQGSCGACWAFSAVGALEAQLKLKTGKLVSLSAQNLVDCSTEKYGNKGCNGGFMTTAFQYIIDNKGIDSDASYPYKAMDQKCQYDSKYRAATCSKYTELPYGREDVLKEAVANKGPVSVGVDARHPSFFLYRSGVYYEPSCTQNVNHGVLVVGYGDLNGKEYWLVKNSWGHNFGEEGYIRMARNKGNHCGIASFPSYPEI

On to `Cn1cnc2c(C#N)nc(-c3ccc(OCCC4CCN(Cc5nccs5)CC4)c(C(F)(F)F)c3)cc21` [Example 14i, 1-methyl-6-(4-(2-(1-(thiazol-2-ylmethyl)piperidin-4-yl)ethoxy)-3-(trifluoromethyl)-phenyl)-1H-imidazo[4,5-c]pyridine-4-carbonitrile], for which, on Cathepsin S [1], the IC50 was under 0.1 µM. As for `CN(C)C(=O)CN1CCC(CCOc2ccc(-c3cc4c(ncn4C)c(C#N)n3)cc2C(F)(F)F)CC1` [Example 14d, 6-(4-(2-(1-(2-dimethylamino-2-oxo-ethyl)piperidin-4-yl)ethoxy)-3-(trifluoromethyl)phenyl)-1-methyl-1H-imidazo[4,5-c]pyridine-4-carbonitrile], the IC50 at Cathepsin S [1] is under 0.1 µM. For the same compound, the EC50 on Cathepsin S [2] is under 0.1 µM. Take `Cc1noc(C)c1CN1CCC(CCOc2ccc(-c3cc4c(ncn4C)c(C#N)n3)cc2C(F)(F)F)CC1` [Example 14c, 6-(4-(2-(1-((3,5-dimethylisoxazol-4-yl)methyl)piperidin-4-yl)ethoxy)-3-(trifluoromethyl)phenyl)-1-methyl-1H-imidazo[4,5-c]pyridine-4-carbonitrile]: the IC50 at Cathepsin S [1] was under 0.1 µM. Besides, the EC50 on Cathepsin S [2] is under 0.1 µM. With `COCCN1CCC(CCOc2ccc(-c3cc4c(ncn4C)c(C#N)n3)cc2C(F)(F)F)CC1` [Example 14h, 6-(4-(2-(1-(2-methoxyethyl)piperidin-4-yl)ethoxy)-3-(trifluoromethyl)phenyl)-1-methyl-1H-imidazo[4,5-c]pyridine-4-carbonitrile], the IC50 at Cathepsin S [1] is under 0.1 µM. With `CNc1cc(COc2ccc(-c3cc4c(ncn4C)c(C#N)n3)cc2C(F)(F)F)ccn1` [Example 12c, 1-Methyl-6-{4-[(2-(N-methylamino)-pyridin-4-yl)-methoxy]-3-(trifluoromethyl)-phenyl}-1H-imidazo[4,5-c]pyridine-4-carbonitrile], at Cathepsin S [2], the EC50 was under 0.1 µM. Regarding `CC(=O)N(C)CCCOc1ccc(-c2cc3c(ncn3C)c(C#N)n2)cc1C(F)(F)F` [Example 2a, 6-{4-[3-(N-acetyl-N-methylamino)propoxy]-3-(trifluoromethyl)-phenyl}-1-methyl-1H-imidazo[4,5-c]pyridine-4-carbonitrile], the IC50 at Cathepsin S [1] was under 0.1 µM. Consider `CCN(C)c1cc(COc2ccc(-c3cc4c(ncn4C)c(C#N)n3)cc2C(F)(F)F)ccn1` [Example 12a, 1-Methyl-6-{4-[(2-(N-ethyl-N-methylamino)-pyridin-4-yl)-methoxy]-3-(trifluoromethyl)-phenyl}-1H-imidazo[4,5-c]pyridine-4-carbonitrile Hydrocloride], for which the IC50 on Cathepsin S [1] was under 0.1 µM. The EC50 at Cathepsin S [2] was under 0.1 µM. As to `Cn1cnc2c(C#N)nc(-c3ccc(OCCCNS(C)(=O)=O)c(C(F)(F)F)c3)cc21` [Example 1a, N-(3-(4-(4-cyano-1-methyl-1H-imidazo[4,5-c]pyridin-6-yl)-2-(trifluoromethyl)phenoxy)propyl)methanesulfonamide], the IC50 on Cathepsin S [1] is under 0.1 µM. Same read-out and setting: in the case of `Cn1cnc2c(C#N)nc(-c3ccc(OCCC4CCN(CCF)CC4)c(C(F)(F)F)c3)cc21` [Example 14f, 6-(4-(2-(1-(2-fluoroethyl)piperidin-4-yl)ethoxy)-3-(trifluoromethyl)phenyl)-1-methyl-1H-imidazo[4,5-c]pyridine-4-carbonitrile] it was under 0.1 µM. Turning to `Cn1cnc2c(C#N)nc(-c3ccc(OCCC4CCN(Cc5ncco5)CC4)c(C(F)(F)F)c3)cc21` [Example 14a, 1-methyl-6-(4-(2-(1-(oxazol-2-ylmethyl)piperidin-4-yl)ethoxy)-3-(trifluoromethyl)phenyl)-1H-imidazo[4,5-c]pyridine-4-carbonitrile hydrochloride], the IC50 at Cathepsin S [1] is under 0.1 µM. In addition, the EC50 at Cathepsin S [2] was under 0.1 µM. `Cc1cc(CN2CCC(CCOc3ccc(-c4cc5c(ncn5C)c(C#N)n4)cc3C(F)(F)F)CC2)no1` [Example 14b, 1-methyl-6-(4-(2-(1-((5-methylisoxazol-3-yl)methyl)piperidin-4-yl)ethoxy)-3-(trifluoromethyl)phenyl)-1H-imidazo[4,5-c]pyridine-4-carbonitrile]: the IC50 at Cathepsin S [1] is under 0.1 µM. Also, the EC50 on Cathepsin S [2] was under 0.1 µM.

For `CCNc1cc(COc2ccc(-c3cc4c(ncn4C)c(C#N)n3)cc2C(F)(F)F)ccn1` [Example 12b, 1-Methyl-6-{4-[(2-(N-ethylamino)-pyridin-4-yl)-methoxy]-3-(trifluoromethyl)-phenyl}-1H-imidazo[4,5-c]pyridine-4-carbonitrile], the EC50 at Cathepsin S [2] was under 0.1 µM. As to `CC(=O)NCCCOc1ccc(-c2cc3c(ncn3C)c(C#N)n2)cc1C(F)(F)F` [Example 1b, 6-[4-(3-acetylaminopropoxy)-3-(trifluoromethyl)-phenyl]-1-methyl-1H-imidazo[4,5-c]pyridine-4-carbonitrile], at Cathepsin S [1], the IC50 is under 0.1 µM. On the same count and under the same terms, in the case of `Cn1cnc2c(C#N)nc(-c3ccc(OCCC4CCN(CC(F)F)CC4)c(C(F)(F)F)c3)cc21` [Example 14g, 6-(4-(2-(1-(2,2-difluoroethyl)piperidin-4-yl)ethoxy)-3-(trifluoromethyl)phenyl)-1-methyl-1H-imidazo[4,5-c]pyridine-4-carbonitrile] it was under 0.1 µM; in that of `Cn1cnc2c(C#N)nc(-c3ccc(OCCC4CCN(CC(=O)N5CCCC5)CC4)c(C(F)(F)F)c3)cc21` [Example 14e, 6-(4-(2-(1-(2-oxo-2-(pyrrolidin-1-yl)ethyl)piperidin-4-yl)ethoxy)-3-(trifluoromethyl)phenyl)-1-methyl-1H-imidazo[4,5-c]pyridine-4-carbonitrile], under 0.1 µM; in that of `Cn1cnc2c(C#N)nc(-c3ccc(OCCN4C=NC(C)(C)C4=O)c(C(F)(F)F)c3)cc21` [Example 18, 6-(4-(2-(4,4-dimethyl-5-oxo-4,5-dihydro-1H-imidazol-1-yl)ethoxy)-3-(trifluoromethyl)phenyl)-1-methyl-1H-imidazo[4,5-c]pyridine-4-carbonitrile TFA salt], under 0.1 µM. The same measure, in the same setting: in the case of `CC(=O)N(C)CCOc1ccc(-c2cc3c(ncn3C)c(C#N)n2)cc1C(F)(F)F` [Example 7d, 1-methyl-6-(4-(2-(N-acetyl-N-methylamino)ethoxy)-3-(trifluoromethyl)phenyl)-1H-imidazo[4,5-c]pyridine-4-carbonitrile] it was under 0.1 µM.
